Measurements reported in ChEMBL document CHEMBL2021770, “Potent and Selective Inhibitors of Long Chain l-2-Hydroxy Acid Oxidase Reduced Blood Pressure in DOCA Salt-Treated Rats” (ACS Med Chem Lett, 2011).
Each block holds one molecule with its values, some of them ahead of it. Active and inactive are the calls of the source. The calls are words filed in the database; no cut-off is given here.

Key:
Rattus norvegicus = assay: Antihypertensive activity in DOCA-salt treated Wistar rat assessed as decrease in systolic blood pressure at 10 mg/kg, po bid administered 29 days after DOCA-salt-challenge for 15 days 12 to 15 hrs post-last dose by plethysmography; format: functional, organism-based; parameters: dose 10 mg/kg; details: Artery
2-Hydroxyacid oxidase 2 = biological target: T1, 2-Hydroxyacid oxidase 2 (Rattus norvegicus, UniProt Q07523); assay: Inhibition of rat His6-tagged Hao2 expressed in Escherichia coli BL21/DE3 using 2-hydroxyoctanoic acid as substrate measured every 10 secs by spectrophotometry
T1 sequence (Q07523 whole entry): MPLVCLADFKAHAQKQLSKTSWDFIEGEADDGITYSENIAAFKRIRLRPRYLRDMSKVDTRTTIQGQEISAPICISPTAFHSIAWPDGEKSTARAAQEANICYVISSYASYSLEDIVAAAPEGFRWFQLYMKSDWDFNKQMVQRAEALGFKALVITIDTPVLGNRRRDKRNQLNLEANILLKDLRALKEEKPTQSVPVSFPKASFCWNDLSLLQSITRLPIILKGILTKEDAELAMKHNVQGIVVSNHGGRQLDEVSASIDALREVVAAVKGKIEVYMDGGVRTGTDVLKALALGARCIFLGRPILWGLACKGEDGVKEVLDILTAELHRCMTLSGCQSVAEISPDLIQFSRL

[1] = Drug metabolism in rat liver microsomes assessed as metabolic rate per 0.125 mg/mL protein; format: ADME, Microsome
Cytochrome P450 3A4 = Cytochrome P450 3A4 (Homo sapiens, UniProt P08684); assay: Inhibition of CYP3A4; format: ADME
[2] = Oral bioavailability in rat at 10 mg/kg; format: ADME, organism-based; details: in vivo
[3] = biological target: T2, Nuclear receptor subfamily 1 group I member 2 (Homo sapiens, UniProt O75469); assay: Induction of PXR at 100 uM
T2 sequence (O75469 whole entry): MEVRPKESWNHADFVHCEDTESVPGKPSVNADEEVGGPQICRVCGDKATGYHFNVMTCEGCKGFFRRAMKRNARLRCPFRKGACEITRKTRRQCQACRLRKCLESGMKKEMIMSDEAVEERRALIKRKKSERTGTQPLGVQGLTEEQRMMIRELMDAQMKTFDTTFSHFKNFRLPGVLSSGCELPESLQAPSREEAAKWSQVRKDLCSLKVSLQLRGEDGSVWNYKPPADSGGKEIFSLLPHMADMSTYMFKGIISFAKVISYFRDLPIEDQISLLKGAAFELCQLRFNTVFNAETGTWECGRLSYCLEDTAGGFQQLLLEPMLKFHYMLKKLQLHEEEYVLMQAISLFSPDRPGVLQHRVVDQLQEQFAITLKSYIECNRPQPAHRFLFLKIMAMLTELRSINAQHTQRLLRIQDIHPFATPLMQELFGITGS

Cytochrome P450 2C9 = Cytochrome P450 2C9 (Homo sapiens, UniProt P11712); assay: Inhibition of CYP2C9; format: ADME
[4] = Elimination half life in rat at 1 mg/kg, iv; format: ADME, organism-based; parameters: dose 1 mg/kg, route intravenous; details: in vivo, read-out: beta t1/2 (converted)
Cytochrome P450 2D6 = Cytochrome P450 2D6 (Homo sapiens, UniProt P10635); assay: Inhibition of CYP2D6; format: ADME
[5] = AUC (0 to 8 hrs) in rat at 1 mg/kg, iv; format: ADME, organism-based; parameters: time < 8 hr, dose 1 mg/kg, route intravenous; details: plasma
[6] = Induction of cytochrome P450 at 10 uM; format: ADME
Kidney [7] = assay: Drug uptake in Wistar rat kidney at 30 mg/kg, po bid administered for 15 days measured 1 hr post-last dose; format: ADME, organism-based; parameters: dose 30 mg/kg, route oral; details: in vivo
Kidney [8] = assay: Drug uptake in Wistar rat kidney at 3 mg/kg, po bid administered for 15 days measured 12 to 15 hrs post-last dose; format: ADME, organism-based; parameters: dose 3 mg/kg, route oral; details: in vivo
Plasma [9] = assay: Plasma concentration in Wistar rat at 3 mg/kg, po bid administered for 15 days measured 12 to 15 hrs post-last dose; format: ADME, organism-based; parameters: dose 3 mg/kg, route oral; details: in vivo
[10] = Plasma concentration in Wistar rat at 3 mg/kg, po bid administered for 15 days measured 1 hr post-last dose; format: ADME, organism-based; parameters: dose 3 mg/kg, route oral
[11] = Plasma protein binding in rat; format: ADME, cell-free; details: read-out: PPB
[12] = Tmax in rat at 10 mg/kg, po; format: ADME, organism-based; parameters: dose 10 mg/kg, route oral; details: in vivo
[13] = Elimination half life in rat at 10 mg/kg, po; format: ADME, organism-based; parameters: dose 10 mg/kg, route oral; details: in vivo, read-out: beta t1/2 (converted)
Plasma [14] = assay: Plasma concentration in Wistar rat at 30 mg/kg, po bid administered for 15 days measured 12 to 15 hrs post-last dose; format: ADME, organism-based; parameters: dose 30 mg/kg, route oral; details: in vivo
[15] = Volume of distribution at steady state in rat at 1 mg/kg, iv; format: ADME, organism-based; parameters: dose 1 mg/kg, route intravenous; details: in vivo, read-out: Vdss
Cytochrome P450 1A2 = biological target: T3, Cytochrome P450 1A2 (Homo sapiens, UniProt P05177); assay: Inhibition of CYP1A2; format: ADME
T3 sequence (P05177 whole entry): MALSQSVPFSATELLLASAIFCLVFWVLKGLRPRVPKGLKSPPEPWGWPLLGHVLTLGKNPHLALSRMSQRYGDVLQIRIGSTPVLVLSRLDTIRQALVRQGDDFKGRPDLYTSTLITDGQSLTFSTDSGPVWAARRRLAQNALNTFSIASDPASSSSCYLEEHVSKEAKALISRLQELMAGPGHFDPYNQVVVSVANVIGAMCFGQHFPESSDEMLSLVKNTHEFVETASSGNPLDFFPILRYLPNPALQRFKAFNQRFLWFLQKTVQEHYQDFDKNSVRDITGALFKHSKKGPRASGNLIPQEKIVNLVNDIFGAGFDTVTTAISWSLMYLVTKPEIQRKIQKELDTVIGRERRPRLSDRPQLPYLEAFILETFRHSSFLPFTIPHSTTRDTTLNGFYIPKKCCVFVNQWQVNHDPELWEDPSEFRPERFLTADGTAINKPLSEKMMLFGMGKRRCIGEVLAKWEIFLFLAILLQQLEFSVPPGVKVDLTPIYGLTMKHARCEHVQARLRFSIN

Kidney [16] = assay: Drug uptake in Wistar rat kidney at 3 mg/kg, po bid administered for 15 days measured 1 hr post-last dose; format: ADME, organism-based; parameters: dose 3 mg/kg, route oral; details: in vivo
Cytochrome P450 2C19 = Cytochrome P450 2C19 (Homo sapiens, UniProt P33261); assay: Inhibition of CYP2C19; format: ADME
[17] = AUC (0 to 8 hrs) in rat at 10 mg/kg, po; format: ADME, organism-based; parameters: time < 8 hr, dose 10 mg/kg, route oral; details: plasma
[18] = Clearance in rat at 1 mg/kg, iv; format: ADME, organism-based; parameters: dose 1 mg/kg, route intravenous; details: in vivo
[19] = Plasma concentration in Wistar rat at 30 mg/kg, po bid administered for 15 days measured 1 hr post-last dose; format: ADME, organism-based; parameters: dose 30 mg/kg, route oral
[20] = Cmax in rat at 10 mg/kg, po; format: ADME, organism-based; parameters: dose 10 mg/kg, route oral; details: in vivo

Sequence of Cytochrome P450 2C19 (P33261 whole entry): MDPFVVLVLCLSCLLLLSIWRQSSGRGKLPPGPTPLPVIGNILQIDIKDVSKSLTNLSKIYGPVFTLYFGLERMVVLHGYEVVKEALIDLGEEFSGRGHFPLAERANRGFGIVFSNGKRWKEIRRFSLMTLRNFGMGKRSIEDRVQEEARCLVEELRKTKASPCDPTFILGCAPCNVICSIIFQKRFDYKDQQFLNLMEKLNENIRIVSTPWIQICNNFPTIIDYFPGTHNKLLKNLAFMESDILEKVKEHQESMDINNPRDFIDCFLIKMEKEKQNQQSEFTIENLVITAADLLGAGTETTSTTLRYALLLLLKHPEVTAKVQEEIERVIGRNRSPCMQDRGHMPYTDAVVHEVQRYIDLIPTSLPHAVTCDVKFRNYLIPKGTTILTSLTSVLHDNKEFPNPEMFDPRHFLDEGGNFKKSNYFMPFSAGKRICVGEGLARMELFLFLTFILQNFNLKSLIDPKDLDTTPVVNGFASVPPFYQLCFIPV
Sequence of Cytochrome P450 2D6 (P10635 whole entry): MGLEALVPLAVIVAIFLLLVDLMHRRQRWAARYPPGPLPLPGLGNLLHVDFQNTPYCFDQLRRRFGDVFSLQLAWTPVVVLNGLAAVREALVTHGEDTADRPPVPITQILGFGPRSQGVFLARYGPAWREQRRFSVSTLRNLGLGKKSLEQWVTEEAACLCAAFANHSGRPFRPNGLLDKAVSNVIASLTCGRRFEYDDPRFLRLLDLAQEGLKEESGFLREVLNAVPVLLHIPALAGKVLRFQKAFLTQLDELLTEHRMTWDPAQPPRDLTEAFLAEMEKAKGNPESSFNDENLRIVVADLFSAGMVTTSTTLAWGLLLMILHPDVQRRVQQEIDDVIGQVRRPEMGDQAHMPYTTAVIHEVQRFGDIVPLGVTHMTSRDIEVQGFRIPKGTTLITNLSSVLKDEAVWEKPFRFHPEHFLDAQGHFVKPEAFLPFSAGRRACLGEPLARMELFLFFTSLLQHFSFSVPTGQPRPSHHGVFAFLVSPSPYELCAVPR
Sequence of Cytochrome P450 2C9 (P11712 whole entry): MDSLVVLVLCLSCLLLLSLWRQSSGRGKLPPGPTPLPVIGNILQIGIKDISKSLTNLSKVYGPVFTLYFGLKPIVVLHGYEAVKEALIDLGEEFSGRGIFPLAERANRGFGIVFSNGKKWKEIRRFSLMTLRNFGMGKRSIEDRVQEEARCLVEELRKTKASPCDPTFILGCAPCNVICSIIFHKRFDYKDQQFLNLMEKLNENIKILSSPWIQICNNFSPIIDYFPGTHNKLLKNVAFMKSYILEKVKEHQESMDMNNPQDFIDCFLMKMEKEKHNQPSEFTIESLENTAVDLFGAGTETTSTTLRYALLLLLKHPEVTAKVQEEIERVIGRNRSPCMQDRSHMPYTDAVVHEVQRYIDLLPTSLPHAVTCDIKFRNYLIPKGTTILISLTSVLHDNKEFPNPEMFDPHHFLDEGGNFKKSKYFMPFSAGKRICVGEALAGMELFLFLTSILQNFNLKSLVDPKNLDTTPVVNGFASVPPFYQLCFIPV
Sequence of Cytochrome P450 3A4 (P08684 whole entry): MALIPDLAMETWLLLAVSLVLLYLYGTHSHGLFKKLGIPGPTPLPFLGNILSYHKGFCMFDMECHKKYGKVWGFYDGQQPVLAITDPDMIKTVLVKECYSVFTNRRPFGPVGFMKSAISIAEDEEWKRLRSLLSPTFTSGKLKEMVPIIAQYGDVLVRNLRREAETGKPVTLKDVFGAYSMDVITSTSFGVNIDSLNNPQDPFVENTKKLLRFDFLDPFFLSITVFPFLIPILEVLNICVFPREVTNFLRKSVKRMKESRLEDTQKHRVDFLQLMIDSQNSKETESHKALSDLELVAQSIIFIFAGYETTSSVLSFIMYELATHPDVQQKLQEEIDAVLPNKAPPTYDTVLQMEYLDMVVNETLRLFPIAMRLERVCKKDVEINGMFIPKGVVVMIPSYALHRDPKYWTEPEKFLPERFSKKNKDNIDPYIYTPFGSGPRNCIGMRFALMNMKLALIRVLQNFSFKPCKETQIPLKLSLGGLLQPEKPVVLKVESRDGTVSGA

SMILES: CC(C)NCC(O)COc1ccc(CC(N)=O)cc1 (stereo not drawn)
Activity (Rattus norvegicus): Active

IC50 (2-Hydroxyacid oxidase 2): 0.91 µM
SMILES: Cc1[nH]nc(C(=O)O)c1CCc1ccc(-c2ccccc2)cc1

Drug metabolism [1]: 0.02 nmol/min/mg | IC50 (Cytochrome P450 3A4): > 10 µM | bioavailability [2]: 53% | Activity [3]: Not Active | IC50 (Cytochrome P450 2C9): > 10 µM | half-life [4]: 3.7 h | IC50 (Cytochrome P450 2D6): > 10 µM | AUC(0-t) at 8 h [5]: 97 µM·h | Activity [6]: Not Active | Drug uptake (Kidney [7]): 113 nmol/g | Drug uptake (Kidney [8]): 13 nmol/g | concentration (Plasma [9]): 12 µM | concentration at 1 h [10]: 48 µM | fraction unbound [11]: < 0.01 | Tmax [12]: 0.25 h | half-life [13]: 4.1 h | concentration (Plasma [14]): 86 µM | Vd [15]: 0.14 L/kg | IC50 (Cytochrome P450 1A2): > 10 µM | Drug uptake (Kidney [16]): 34 nmol/g | IC50 (Cytochrome P450 2C19): > 10 µM | AUC(0-t) at 8 h [17]: 517 µM·h | clearance [18]: 0.52 mL/min/kg | IC50 (2-Hydroxyacid oxidase 2): 0.3 µM | concentration at 1 h [19]: 157 µM | Cmax [20]: 134 µM
SMILES: Cc1[nH]nc(C(=O)O)c1Cc1cc2ccccc2s1
